Experimental data from PubChem BioAssay (NCI).
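Growth conditions: 96-well plates. Treatment: test compound, 48 hours, 5 concentrations. Analysis: linear interpolation between bracketing concentrations; unreached endpoints set to highest concentration. Abbreviation: GI50, concentration required for 50% inhibition of growth. TGI denotes the concentration required for complete inhibition of growth.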

Legend:
Experiment in all cases: NCI-60 cell line screen, 48 h
[1] = tested on: HCT-116 colon
[2] = tested on: SN12C renal
[3] = tested on: NCI-H522 lung
[4] = tested on: M14 melanoma
[5] = tested on: MALME-3M melanoma
[6] = tested on: MDA-MB-231 breast
[7] = tested on: T-47D breast
[8] = tested on: EKVX NSCLC
[9] = tested on: HOP-62 NSCLC
[10] = tested on: SNB-75 CNS
[11] = tested on: MCF7 breast
[12] = tested on: UACC-257 melanoma
[13] = tested on: UO-31 renal
[14] = tested on: SW-620 colon
[15] = tested on: BT-549 breast
[16] = tested on: SK-OV-3 ovarian
[17] = tested on: SK-MEL-28 melanoma
[18] = tested on: OVCAR-3 ovarian
[19] = tested on: SNB-19 CNS
[20] = tested on: SR leukemia
[21] = tested on: SF-268 CNS
[22] = tested on: DU-145 prostate
[23] = tested on: HT29 colon
[24] = tested on: SK-MEL-5 melanoma
[25] = tested on: A549 NSCLC
[26] = tested on: OVCAR-8 ovarian
[27] = tested on: NCI-H226 lung
[28] = tested on: 786-0 renal
[29] = tested on: ACHN renal
[30] = tested on: NCI/ADR-RES ovarian
[31] = tested on: UACC-62 melanoma
[32] = tested on: PC-3 prostate
[33] = tested on: HL-60(TB) leukemia
[34] = tested on: CAKI-1 renal
[35] = tested on: NCI-H23 lung
[36] = tested on: TK-10 renal
[37] = tested on: NCI-H460 lung
[38] = tested on: IGROV1 ovarian
[39] = tested on: OVCAR-5 ovarian
[40] = tested on: KM12 colon
[41] = tested on: SF-539 CNS
[42] = tested on: OVCAR-4 ovarian
[43] = tested on: HS 578T breast
[44] = tested on: CCRF-CEM leukemia
[45] = tested on: HCC-2998 colon
[46] = tested on: HCT-15 colon
[47] = tested on: MDA-MB-435
[48] = tested on: RPMI-8226 leukemia
[49] = tested on: HOP-92 NSCLC
[50] = tested on: SK-MEL-2 melanoma
[51] = tested on: COLO 205 colon
[52] = tested on: RXF 393 renal
[53] = tested on: U251 CNS
[54] = tested on: K-562 leukemia
[55] = tested on: LOX IMVI melanoma
[56] = tested on: MOLT-4 leukemia
[57] = tested on: SF-295 CNS
[58] = tested on: A498 renal

Cc1cc(O)c(=O)cc2c1C[C@H]1CC(C)(C)/C=C/C[C@]3(C)Oc4cc(=O)c(O)cc(C)c4C[C@H]3C[C@H](O)[C@@]1(C)O2
GI50 [1]: < 10 nM
TGI [1]: > 100 µM
GI50 [2]: < 0.0133 µM
TGI [2]: > 29.2 µM
GI50 [3]: 19.2 nM
TGI [3]: 85.3 nM
GI50 [4]: 26.6 nM
TGI [4]: 19.7 µM
GI50 [5]: 28.2 nM
TGI [5]: 0.544 µM
GI50 [6]: 32.2 nM
TGI [6]: 50.3 µM
GI50 [7]: < 10 nM
TGI [7]: 94.9 nM
GI50 [8]: 17.2 nM
TGI [8]: > 46.2 µM
GI50 [9]: 20 nM
TGI [9]: 98.7 nM
GI50 [10]: 26.2 nM
TGI [10]: 42 µM
GI50 [11]: < 0.01 µM
TGI [11]: > 100 µM
GI50 [12]: 21.5 nM
TGI [12]: 0.0895 µM
GI50 [13]: 21.3 nM
TGI [13]: 0.198 µM
GI50 [14]: < 0.01 µM
TGI [14]: > 100 µM
GI50 [15]: 31.9 nM
TGI [15]: 4.55 µM
GI50 [16]: 18.1 nM
TGI [16]: 412 nM
GI50 [17]: 42.3 nM
TGI [17]: 19.9 µM
GI50 [18]: < 0.01 µM
TGI [18]: 19.6 µM
GI50 [19]: < 0.01 µM
TGI [19]: > 67.3 µM
GI50 [20]: < 0.0115 µM
TGI [20]: 0.591 µM
GI50 [21]: < 0.01 µM
TGI [21]: > 63.1 µM
GI50 [22]: < 0.01 µM
TGI [22]: > 75.9 µM
GI50 [23]: < 10 nM
TGI [23]: > 100 µM
GI50 [24]: 16.6 nM
TGI [24]: 98.5 nM
GI50 [25]: < 10 nM
TGI [25]: 2.13 µM
GI50 [26]: < 0.01 µM
TGI [26]: 11.6 µM
GI50 [27]: 54.1 nM
TGI [27]: 13.6 µM
GI50 [28]: 32.7 nM
TGI [28]: 15.4 µM
GI50 [29]: < 10 nM
TGI [29]: 14.5 µM
GI50 [30]: < 0.01 µM
GI50 [31]: 29.6 nM
TGI [31]: 0.157 µM
GI50 [32]: < 10 nM
TGI [32]: 23.5 µM
GI50 [33]: 24.9 nM
TGI [33]: 102 nM
GI50 [34]: 22.5 nM
GI50 [35]: < 0.01 µM
TGI [35]: 0.0345 µM
GI50 [36]: 21.1 nM
TGI [36]: 9.95 µM
GI50 [37]: < 10 nM
TGI [37]: 10.3 µM
GI50 [38]: 25 nM
TGI [38]: 7.46 µM
GI50 [39]: 43.4 nM
TGI [39]: > 100 µM
GI50 [40]: < 0.01 µM
TGI [40]: > 100 µM
GI50 [41]: 33.2 nM
TGI [41]: 58.6 µM
GI50 [42]: 17.2 nM
TGI [42]: > 100 µM
GI50 [43]: 33.9 nM
TGI [43]: > 100 µM
GI50 [44]: 16.3 nM
TGI [44]: 1.21 µM
GI50 [45]: < 14.9 nM
TGI [45]: > 100 µM
GI50 [46]: < 10 nM
TGI [46]: > 100 µM
GI50 [47]: < 0.017 µM
GI50 [48]: 18.5 nM
TGI [48]: 2.97 µM

CCC(C)[C@H]1O[C@]2(CC[C@@H]1C)C[C@@H]1C[C@@H](C/C=C(\C)[C@@H](OC3C[C@H](OC)C(O[C@H]4C[C@H](OC)[C@@H](O)[C@H](C)O4)[C@H](C)O3)[C@@H](C)/C=C/C=C3\CO[C@@H]4[C@H](O)C(C)=C[C@@H](C(=O)O1)[C@]34O)O2 (stereo not given in full)
GI50 [1]: 2720 nM
TGI [1]: 10.7 µM
GI50 [2]: 3.08 µM
TGI [2]: 11.4 µM
GI50 [4]: 3150 nM
TGI [4]: 11.2 µM
GI50 [5]: 2740 nM
TGI [5]: 14.5 µM
GI50 [6]: 2310 nM
TGI [6]: 6.85 µM
GI50 [49]: 1980 nM
TGI [49]: 8.18 µM
GI50 [7]: 1570 nM
TGI [7]: 3350 nM
GI50 [8]: 2950 nM
TGI [8]: 15.1 µM
GI50 [9]: 1800 nM
TGI [9]: 4850 nM
GI50 [50]: 2040 nM
TGI [50]: 4.79 µM
GI50 [10]: 2690 nM
TGI [10]: 7.56 µM
GI50 [51]: 1630 nM
TGI [51]: 3.1 µM
GI50 [11]: 3.02 µM
TGI [11]: 10.8 µM
GI50 [12]: 2170 nM
TGI [12]: 6.25 µM
GI50 [13]: 1850 nM
TGI [13]: 10.2 µM
GI50 [52]: 1370 nM
TGI [52]: 2810 nM
GI50 [53]: 2210 nM
TGI [53]: 10.6 µM
GI50 [54]: 3.88 µM
TGI [54]: 15.4 µM
GI50 [55]: 2300 nM
TGI [55]: 5.79 µM
GI50 [14]: 3.44 µM
TGI [14]: 13.8 µM
GI50 [15]: 2730 nM
TGI [15]: 7.3 µM
GI50 [16]: 2000 nM
TGI [16]: 5040 nM
GI50 [17]: 2670 nM
TGI [17]: 7.21 µM
GI50 [18]: 3.12 µM
TGI [18]: 9.3 µM
GI50 [19]: 3.75 µM
TGI [19]: 15.6 µM
GI50 [20]: 5.79 µM
TGI [20]: 33.7 µM
GI50 [56]: 4.77 µM
TGI [56]: 20.2 µM
GI50 [21]: 4.14 µM
TGI [21]: 15.6 µM
GI50 [22]: 5.59 µM
TGI [22]: 18.1 µM
GI50 [23]: 2400 nM
TGI [23]: 5.81 µM
GI50 [24]: 1490 nM
TGI [24]: 2820 nM
GI50 [25]: 2070 nM
TGI [25]: 11.3 µM
GI50 [26]: 3.06 µM
TGI [26]: 12.5 µM
GI50 [27]: 1580 nM
TGI [27]: 3.79 µM
GI50 [57]: 2540 nM
TGI [57]: 10.9 µM
GI50 [28]: 3660 nM
TGI [28]: 14 µM
GI50 [29]: 1730 nM
TGI [29]: 3.48 µM
GI50 [30]: 3.43 µM
TGI [30]: 13.7 µM
GI50 [31]: 1890 nM
TGI [31]: 6.5 µM
GI50 [32]: 2640 nM
TGI [32]: 12.8 µM
GI50 [33]: 2180 nM
TGI [33]: 5030 nM
GI50 [34]: 2600 nM
TGI [34]: 11.2 µM
GI50 [35]: 3.21 µM
TGI [35]: 13.7 µM
GI50 [36]: 3080 nM
TGI [36]: 12.7 µM
GI50 [37]: 2910 nM
TGI [37]: 10.6 µM
GI50 [38]: 2950 nM
TGI [38]: 13.5 µM
GI50 [39]: 2050 nM
TGI [39]: 5.67 µM
GI50 [40]: 3.77 µM
TGI [40]: 14 µM
GI50 [58]: 1790 nM
TGI [58]: 7.72 µM
GI50 [41]: 1910 nM
TGI [41]: 3.96 µM
GI50 [42]: 3280 nM
TGI [42]: 10.8 µM
GI50 [43]: 3760 nM
TGI [43]: 20.7 µM
GI50 [44]: 4000 nM
TGI [44]: 21.2 µM
GI50 [46]: 2740 nM
TGI [46]: 10.2 µM
GI50 [47]: 3.89 µM
TGI [47]: 15.9 µM
GI50 [48]: 2950 nM
TGI [48]: 14.9 µM
